Where two headings read alike, the source gives them in different places.
Key:
[1] = biological target: T1, B-Raf(V600E) kinase (Homo sapiens, UniProt P15056, V600E); experiment: B-Raf(V600E) kinase assay ([33P] incorporation into MEK1(K97R)); format: biochemical; details: class symbols; 8 μM ATP; read-out: IC50 against B-Raf(V600E) kinase
T1 construct: purchased Upstate Biotechnology
Description: (§1) Inhibition of kinase activity by a test compound disclosed herein was estimated by quantifying the amount of [^33P] incorporation of a substrate in the presence of the test compound. Standard assay conditions were 5 ng of recombinant B-Raf(V600E) kinase (Upstate Biotechnology) with 500 ng MEK1 (K97R) in assay buffer (8 μM ATP, 0.5 μCi [^33P] ATP (specific activity 3000 Ci/mmol, PerkinElmer), 50 mM Tris/HCl (pH7.5), and 1 mM EGTA, 1 mM Na3VO4, 1% 2-mercaptoethanol, 0.1% Brij 35, and 0.2 mg/ml BSA), and the test compound (diluted with 4% DMSO) or DMSO alone (as a control) in a final volume of 25 μL. Reactions were incubated at 30° C. for 30 min and stopped by adding 3% phosphoric acid, harvested onto a 96-well GF/B UniFilter (PerkinElmer) using a unifilter harvester (PerkinElmer), and counted with a TopCount microplate scintillation counter (PerkinElmer). The IC50 values of inhibitors were determined after carrying out assays at 3-fold serially diluted concentrations of each compound in duplication. The results were analyzed using linear regression software (GraphPad Prism 4; GraphPad Software Inc.).

[2] = biological target: T2, B-Raf kinase (Homo sapiens, UniProt P15056); experiment: B-Raf kinase assay ([33P] incorporation into MEK1(K97R)); format: biochemical; details: class symbols; 8 μM ATP; read-out: IC50 against B-Raf kinase
T2 construct: purchased Upstate Biotechnology
T2 sequence (P15056 whole entry): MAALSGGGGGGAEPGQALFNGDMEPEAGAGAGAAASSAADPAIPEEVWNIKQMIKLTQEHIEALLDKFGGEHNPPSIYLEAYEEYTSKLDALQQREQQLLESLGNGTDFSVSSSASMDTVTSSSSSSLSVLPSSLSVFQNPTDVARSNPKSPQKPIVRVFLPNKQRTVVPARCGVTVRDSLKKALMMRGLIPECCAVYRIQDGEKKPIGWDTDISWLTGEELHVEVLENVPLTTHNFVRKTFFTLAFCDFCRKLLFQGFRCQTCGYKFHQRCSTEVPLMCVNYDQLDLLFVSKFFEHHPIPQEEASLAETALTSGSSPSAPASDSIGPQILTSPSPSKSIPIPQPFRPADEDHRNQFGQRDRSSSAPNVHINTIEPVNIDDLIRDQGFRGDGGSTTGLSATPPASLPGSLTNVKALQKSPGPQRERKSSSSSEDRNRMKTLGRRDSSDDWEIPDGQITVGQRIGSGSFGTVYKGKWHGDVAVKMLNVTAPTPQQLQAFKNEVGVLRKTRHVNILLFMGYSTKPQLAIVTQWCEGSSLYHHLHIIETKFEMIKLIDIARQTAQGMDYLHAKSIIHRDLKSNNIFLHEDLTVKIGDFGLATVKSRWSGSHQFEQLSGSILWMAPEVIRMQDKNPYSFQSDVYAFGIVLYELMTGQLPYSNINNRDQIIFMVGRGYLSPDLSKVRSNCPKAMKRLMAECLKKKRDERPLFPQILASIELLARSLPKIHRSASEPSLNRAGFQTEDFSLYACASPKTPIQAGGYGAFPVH
Description: as §1, with “B-Raf” for “B-Raf(V600E)”, “MEK1(K97R)” for “MEK1 (K97R)”, “[^33P]ATP” for “[^33P] ATP”, “BSA)” for “BSA), and the test compound (diluted with 4% DMSO) or DMSO alone (as a control)”

[3] = biological target: T3, VEGFR2 kinase (Homo sapiens, UniProt P35968); experiment: VEGFR2 radiometric kinase assay; format: biochemical; details: given as bound; 100 μM ATP; read-out: Inhibition activity, IC50 VEGFR2
T3 construct: VEGFR2 kinase domain alone, Millipore; purchased Millipore
T3 sequence (P35968 834-1162 limits assumed): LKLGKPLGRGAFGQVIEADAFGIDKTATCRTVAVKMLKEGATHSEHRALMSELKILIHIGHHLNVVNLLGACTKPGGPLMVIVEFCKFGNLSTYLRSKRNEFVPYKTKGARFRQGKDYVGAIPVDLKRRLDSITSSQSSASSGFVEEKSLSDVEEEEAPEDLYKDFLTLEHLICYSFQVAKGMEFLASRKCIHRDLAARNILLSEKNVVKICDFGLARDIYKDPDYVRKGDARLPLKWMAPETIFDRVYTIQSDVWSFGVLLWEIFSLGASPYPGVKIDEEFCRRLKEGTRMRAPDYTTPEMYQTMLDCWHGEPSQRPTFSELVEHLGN
Description: (§2) The inhibitory activity against VEGFR2 or EGFR was determined by radiometric kinase assay. The experimental condition for VEGFR2 kinase assay was 6.25 ng of recombinant VEGFR2 kinase (VEGFR2 kinase domain alone, Millipore), 5 μg of substrate Poly(Glu-Tyr) (4:1, Sigma), kinase reaction buffer (20 mM MOPS pH 7.0, 1 mM EDTA, 5% glycerol, 0.01% Brij-35, 0.1% β-mercaptoethanol, 1 mg/mL BSA, 100 μM ATP, and 0.1 μCi per well [^33P] ATP (specific activity 3000 Ci/mmol, PerkinElmer)), and the test compound (diluted with 4% DMSO) or DMSO alone (as a control) in a final volume of 25 μL. Reactions were incubated at 30° C. for 30 min and stopped by adding 3% phosphoric acid, harvested onto a 96-well GF/B UniFilter (PerkinElmer) using a unifilter harvester (PerkinElmer), and counted with a TopCount microplate scintillation counter (PerkinElmer).
(§3) Results of inhibition activity against VEGFR2 and EGFR kinases by the selected compounds, which have IC50 values on B-Raf kinase <300 nM, are summarized in Table 6.

[4] = biological target: T4, EGFR kinase (Homo sapiens, UniProt P00533); experiment: EGFR radiometric kinase assay; format: biochemical; details: 100 μM ATP, read-out: Inhibition activity, IC50 EGFR
T4 construct: EGFR kinase domain alone, Millipore; purchased Millipore
T4 sequence (P00533 712-979 limits assumed): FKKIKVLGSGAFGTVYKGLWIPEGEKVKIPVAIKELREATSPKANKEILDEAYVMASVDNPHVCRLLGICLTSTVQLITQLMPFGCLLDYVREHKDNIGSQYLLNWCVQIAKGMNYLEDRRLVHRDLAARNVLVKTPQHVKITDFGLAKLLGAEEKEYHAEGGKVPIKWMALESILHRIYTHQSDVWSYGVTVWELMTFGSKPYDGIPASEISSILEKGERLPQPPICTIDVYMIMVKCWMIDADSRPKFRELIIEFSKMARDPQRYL
Description: as §2
The experimental condition for EGFR kinase assay was 25 ng of EGFR kinase (EGFR kinase domain alone, Millipore), 3 μg of the substrate poly(Glu-Tyr), (Sigma), kinase reaction buffer (10 mM MOPS pH 7.0, 0.3 mM EDTA, 0.5% glycerol, 0.001% Brij-35, 10 mM MnCl2, 0.1 mg/ml BSA, 100 μM ATP, and 0.1 μCi per well [^33P]ATP (specific activity 3000 Ci/mmol, PerkinElmer)), and the test compound (diluted with 4% DMSO) or DMSO (as a control) in a final volume of 25 μL. Reactions were incubated at 30° C. for 30 min and stopped by adding 3% phosphoric acid, harvested onto a 96-well GF/B UniFilter (PerkinElmer) using a unifilter harvester (PerkinElmer), and counted with a TopCount microplate scintillation counter (PerkinElmer).
as §3

[5] = biological target: T5, C-Raf kinase (Homo sapiens, UniProt P04049); experiment: C-Raf kinase assay ([33P] incorporation into MEK1(K97R)); format: biochemical; details: class symbols; 8 μM ATP; read-out: IC50 against C-Raf kinase
T5 construct: purchased Upstate Biotechnology
T5 sequence (P04049 whole entry): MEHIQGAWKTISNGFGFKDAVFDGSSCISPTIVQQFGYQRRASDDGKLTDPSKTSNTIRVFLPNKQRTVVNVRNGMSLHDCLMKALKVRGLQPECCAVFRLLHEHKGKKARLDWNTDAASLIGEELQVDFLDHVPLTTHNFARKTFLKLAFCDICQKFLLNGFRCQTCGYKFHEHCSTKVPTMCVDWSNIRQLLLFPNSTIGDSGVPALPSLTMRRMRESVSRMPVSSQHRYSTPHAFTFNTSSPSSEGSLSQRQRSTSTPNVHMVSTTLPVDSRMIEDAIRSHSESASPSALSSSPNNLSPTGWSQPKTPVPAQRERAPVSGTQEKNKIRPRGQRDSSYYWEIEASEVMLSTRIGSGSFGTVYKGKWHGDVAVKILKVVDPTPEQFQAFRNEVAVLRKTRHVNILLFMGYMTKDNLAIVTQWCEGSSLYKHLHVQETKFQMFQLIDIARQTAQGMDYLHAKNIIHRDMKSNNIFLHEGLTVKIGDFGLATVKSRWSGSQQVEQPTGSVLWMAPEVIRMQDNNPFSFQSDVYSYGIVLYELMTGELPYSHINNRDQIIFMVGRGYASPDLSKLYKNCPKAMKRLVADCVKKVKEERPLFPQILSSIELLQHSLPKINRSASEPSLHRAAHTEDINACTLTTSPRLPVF
Description: as §1, with “were 2” for “were 5”, “recombinant C-Raf” for “recombinant B-Raf(V600E)”

[6] = test system: A375 melanoma cells and COLO205 colon cancer cells; experiment: Cell proliferation assay (CellTiter-96); format: cell-based; details: Homo sapiens; A375 or COLO205, 72 hours treatment; read-out: Cytotoxicity IC50 for A375 or COLO205
Description: The anti-proliferative activities of compounds of formula (I) against B-Raf(V600E) mutant human cancer cell lines, A375 melanoma cells and COLO205 colon cancer cells, were measured using the CellTiter™-96 assay kit (Promega) following the manufacturer's instructions. In brief, the cells were maintained in DMEM containing 10% FCS and incubated at 37° C. in 5% CO2 atmosphere. Cells were plated at a density of 2,000 cells/well on a 96-well plate and incubated for 24 h. Then, these cells were treated with different concentrations of the test compounds and incubated for another 72 hours. At the end of the incubation, CellTiter™-96 Aqueous One Solution Reagent (Promega) was added and incubated for another 4.0 hours. Cell viability was determined by measuring absorbance at 490 nm using EMax® microplate reader (Molecular Devices). Data were processed and analyzed using GraphPad Prism.

T1 sequence (P15056 whole entry V600E): as the sequence (P15056 whole entry) above, with V600E counted along it

Row | SMILES | IC50 [1] [nM] | IC50 [2] [nM] | IC50 [3] [nM] | IC50 ([4]; given as bound) [nM] | IC50 [5] [nM] | IC50 ([4]; class symbols) [nM] | IC50 [6] [nM]
1 | CCCS(=O)(=O)Nc1ccc(F)c(C(=O)c2ncnc3ccc(-c4cccnc4F)cc23)c1F [compound 48, N-(2,4-difluoro-3-(6-(2-fluoropyridin-3-yl)quinazoline-4-carbonyl)phenyl)propane-1-sulfonamide] | < 300 | < 300 | > 3000 | > 3000 | < 300 |  | 
2 | CCCS(=O)(=O)Nc1ccc(F)c(Nc2ncnc3ccc(-c4ccc(OC)nc4)cc23)c1F [compound 27, N-(2,4-difluoro-3-(6-(6-methoxypyridin-3-yl)quinazolin-4-ylamino)phenyl)propane-1-sulfonamide] | < 300 | 300 to 1000 | > 3000 |  | < 300 | 1000 to 3000 | < 2000
3 | CCCS(=O)(=O)Nc1ccc(F)c(Nc2ncnc3ccc(-c4cccnc4F)cc23)c1F [compound 1, N-(2,4-difluoro-3-(6-(2-fluoropyridin-3-yl)quinazolin-4-ylamino)phenyl)propane-1-sulfonamide] | < 300 | < 300 | > 3000 | > 3000 | < 300 |  | < 2000
4 | CCCS(=O)(=O)Nc1ccc(F)c(Nc2ncnc3ccc(-c4cccnc4Cl)cc23)c1F [compound 57, N-(3-(6-(2-chloropyridin-3-yl)-quinazolin-4-ylamino)-2,4-difluorophenyl)propane-1-sulfonamide] | < 300 | < 300 | > 3000 | > 3000 | < 300 |  | < 2000
5 | CCCS(=O)(=O)Nc1ccc(F)c(Nc2ccnc3ccc(-c4ccnc(F)c4)cc23)c1F [compound 25, N-(2,4-difluoro-3-(6-(2-fluoropyridin-4-yl)quinolin-4-ylamino)phenyl)propane-1-sulfonamide] | < 300 | < 300 | > 3000 | > 3000 | < 300 |  | < 2000
6 | CCCS(=O)(=O)Nc1ccc(F)c(Nc2ncnc3cc(F)c(-c4ccncc4)cc23)c1F [compound 15, N-(2,4-difluoro-3-(7-fluoro-6-(pyridin-4-yl)quinazolin-4-ylamino)phenyl)propane-1-sulfonamide] | < 300 | < 300 | > 3000 |  | < 300 | 1000 to 3000 | < 2000
7 | CCCS(=O)(=O)Nc1ccc(F)c(Nc2ncnc3ccc(-c4cnc(N(C)C)nc4)cc23)c1F [compound 51, N-(3-(6-(2-(dimethylamino)pyrimidin-5-yl)quinazolin-4-ylamino)-2,4-difluorophenyl)propane-1-sulfonamide] | 300 to 1000 | 300 to 1000 |  |  | 1000 to 10000 |  | 
8 | CCCS(=O)(=O)Nc1ccc(F)c(Nc2ncnc3ccc(-c4ccc(N(C)C)nc4)cc23)c1F [compound 54, N-(3-(6-(6-(dimethylamino)pyridin-3-yl)quinazolin-4-ylamino)-2,4-difluorophenyl)propane-1-sulfonamide] | 300 to 1000 | 300 to 1000 |  |  | 300 to 1000 |  | 
9 | CCCS(=O)(=O)Nc1ccc(F)c(Nc2ncnc3ccc(-c4cccnc4F)cc23)c1Cl [compound 9, N-(2-chloro-4-fluoro-3-(6-(2-fluoropyridin-3-yl)quinazolin-4-ylamino)phenyl)propane-1-sulfonamide] | 1000 to 10000 | 1000 to 10000 |  |  | 1000 to 10000 |  | 

More lines, main results first:

Row | IC50 [1] [nM] | IC50 [2] [nM] | IC50 [3] [nM] | IC50 ([4]; given as bound) [nM] | IC50 [5] [nM] | IC50 ([4]; class symbols) [nM] | SMILES | IC50 [6] [nM]
10 | < 300 | < 300 | > 3000 | > 3000 | < 300 |  | O=S(=O)(CCCF)Nc1ccc(F)c(Nc2ncnc3ccc(-c4cccnc4F)cc23)c1F [compound 44, N-(2,4-difluoro-3-(6-(2-fluoropyridin-3-yl)quinazolin-4-ylamino)phenyl)-3-fluoropropane-1-sulfonamide] | < 2000
11 | < 300 | < 300 | > 3000 |  | < 300 | 1000 to 3000 | O=S(=O)(Nc1ccc(F)c(Nc2ncnc3ccc(-c4cccnc4F)cc23)c1F)c1ccccc1 [compound 21, N-(2,4-difluoro-3-(6-(2-fluoropyridin-3-yl)quinazolin-4-ylamino)phenyl)benzenesulfonamide] | < 2000
12 | < 300 | < 300 | > 3000 | > 3000 | < 300 |  | CCCS(=O)(=O)Nc1ccc(F)c(Nc2ncnc3ccc(-c4cncc(F)c4)cc23)c1F [compound 46, N-(2,4-difluoro-3-(6-(5-fluoropyridin-3-yl)quinazolin-4-ylamino)phenyl)propane-1-sulfonamide] | < 2000
13 | < 300 | < 300 | > 3000 |  | < 300 | 300 to 1000 | CCCS(=O)(=O)Nc1ccc(F)c(Nc2ncnc3ccc(-c4cn[nH]c4)cc23)c1F [compound 4, N-(3-(6-(1H-pyrazol-4-yl)quinazolin-4-ylamino)-2,4-difluorophenyl)propane-1-sulfonamide] | 
